Test [1] relates to Pseudomonas aeruginosa PA14. The experiment in a line: Lungs of immunosuppressed mice infected with Pseudomonas aeruginosa (2), lung bacterial load. It is filed as in vivo. As to conditions: 24 hours after infection, total dosage 100 mg/kg, day, ip at 2 h, 4 h, 6 h, 8 h. The protocol:
Pseudomonas aeruginosa PA14. 60 mice were intraperitoneally injected with 150 mg/kg cyclophosphamide on day 1 and day 4 to give immunosuppressed mice. […] [table] The mice were injected with 50 μL of bacterial solution (2×10^3 CFU) through the airway. 2 hours after the infection, 4 mice in the model group was sacrificed by removing cervical vertebra. Two hours after infection, the drugs were administered by groups, and the mice were administered intraperitoneally once at 2 hours, 4 hours, 6 hours, and 8 hours, a total of 4 times. Mice of each group were sacrificed by removing cervical vertebra 24 hours after infection, lung and kidney tissues were taken aseptically and put into a sterilized tissue homogenate tube, weighed, and an appropriate amount of normal saline (NS) was added, the mixture was homogenized by a homogenizer for 1 min, the lung tissues of the model group were diluted 10^4, 10^5, 10^6 times, the lung tissues of each administration group were diluted 10, 100 times, the kidney tissues of the model group were diluted 10^2, 10^3, 10^4 times, and the lung tissues of each administration group were diluted 10 times, the obtained mixtures were coated on TSA plates using spiral coater, then incubated at 37° C. overnight, and the CFU was counted with a colony counter. Graphpad Prism mapping software was used to make scatter plots of lung tissue CFU. SPSS19.0 software was used to count CFU and average body weight, and analysis of variance was used to analyze differences between groups.

The test system of test [2] is E. coli ATCC 25922. The experiment in a line: MIC by micro-liquid dilution method (CLSI). In kind it is cell-based. The note with it: Escherichia coli; E. coli ATCC25922; read-out: MIC.
The subject of test [3] is P. aeruginosa PA 14. In words: MIC by micro-liquid dilution method (CLSI). In kind it is cell-based. As to conditions: Pseudomonas aeruginosa, PA14; P. aeruginosa PA 14; read-out: MIC. The method in brief:
(§1)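 MICs were determined by broth microdilution following CLSI requirements. The strains tested included K. pneumoniae BAA-1705 (KPC-2) and BAA-2470 (NDM-1), P. aeruginosa PA 14 and E. coli MG1655ΔtolC.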

Test [4] relates to E. coli NCTC 13476 (IMP-1 type). In words: MIC by micro-liquid dilution method (CLSI). It is filed as cell-based. The note with it: Escherichia coli; E. coli NCTC13476; read-out: MIC.
Test [5] concerns E. coli ATCC BAA-2523 (OXA-48). The experiment in a line: MIC by micro-liquid dilution method (CLSI). In kind it is cell-based. The note with it: Escherichia coli, ATCCBAA2523; E. coli ATCCBAA-2523; read-out: MIC.
For test [6], the system named is E. coli MG1655Δtol C. In words: MIC by micro-liquid dilution method (CLSI). In kind it is cell-based. The note with it: Escherichia coli. Summed up:
as §1

For test [7], the system named is Acinetobacter baumannii C403. The experiment in a line: MIC on clinically isolated bacteria. In kind it is cell-based. The note with it: Acinetobacter baumannii C403; read-out: Minimum Inhibitory Concentration (MIC). The method in brief:
(§2)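 Values were obtained by CLSI-conformant microdilution against clinically isolated Gram-negative strains.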

In test [8] the test system is Pseudomonas aeruginosa W1. In words: MIC on clinically isolated bacteria. In kind it is cell-based. The note with it: read-out: MIC. The method in brief: as §2
Test [9] concerns Acinetobacter baumannii C361. The experiment in a line: MIC on clinically isolated bacteria. It is filed as cell-based. As to conditions: Acinetobacter baumannii C361; read-out: Minimum Inhibitory Concentration (MIC). The method in brief:
as §2

Test [10] relates to Acinetobacter baumannii C401. The experiment in a line: MIC on clinically isolated bacteria. In kind it is cell-based. As to conditions: Acinetobacter baumannii C401; read-out: Minimum Inhibitory Concentration (MIC). The method in brief: as §2
Test [11] deals with Pseudomonas aeruginosa W24. The experiment in a line: MIC on clinically isolated bacteria. It is filed as cell-based. As to conditions: read-out: MIC. The method in brief:
as §2

Test [12] deals with Pseudomonas aeruginosa W6. The experiment in a line: MIC on clinically isolated bacteria. It is filed as cell-based. As to conditions: read-out: MIC. Summed up:
as §2

Test [13] concerns Pseudomonas aeruginosa W35. The experiment in a line: MIC on clinically isolated bacteria. In kind it is cell-based. As to conditions: read-out: MIC. Summed up:
as §2

Test [14] has as its system Acinetobacter baumannii C357. The experiment in a line: MIC on clinically isolated bacteria. It is filed as cell-based. As to conditions: Acinetobacter baumannii C357; read-out: Minimum Inhibitory Concentration (MIC). Summed up:
as §2

In test [15] the test system is Acinetobacter baumannii C270. In words: MIC on clinically isolated bacteria. It is filed as cell-based. The note with it: Acinetobacter baumannii C270; read-out: Minimum Inhibitory Concentration (MIC). The method in brief:
as §2

The test system of test [16] is Pseudomonas aeruginosa W19. In words: MIC on clinically isolated bacteria. It is filed as cell-based. As to conditions: read-out: MIC. The method in brief: as §2
Test [17] concerns Acinetobacter baumannii C330. In words: MIC on clinically isolated bacteria. The note with it: Acinetobacter baumannii C330; read-out: Minimum Inhibitory Concentration (MIC). It is filed as cell-based. Summed up: as §2
In test [18] the test system is Acinetobacter baumannii ATCC-BAA-1791. The experiment in a line: MIC on Acinetobacter baumannii strains. It is filed as cell-based. As to conditions: ATCCBAA1791. The method in brief: (§3)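 A panel of twelve A. baumannii strains served for susceptibility testing. The method was micro-liquid dilution as required by CLSI, and values are MICs.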
In test [19] the test system is Acinetobacter baumannii ATCC-BAA-1795. In words: MIC on Acinetobacter baumannii strains. In kind it is cell-based. The note with it: ATCCBAA1795. The method in brief:
as §3

Test [20] concerns Acinetobacter baumannii ATCC-BAA-1790. The experiment in a line: MIC on Acinetobacter baumannii strains. It is filed as cell-based. As to conditions: ATCCBAA1790, ATCC-BAA-1790, read-out: MIC. Summed up: as §3
For test [21], the system named is Acinetobacter baumannii ATCC-BAA-1799. In words: MIC on Acinetobacter baumannii strains. In kind it is cell-based. As to conditions: ATCCBAA1799. Summed up: as §3
Test [22] has as its system Acinetobacter baumannii ATCC-BAA-1794. The experiment in a line: MIC on Acinetobacter baumannii strains. The note with it: ATCCBAA1794, ATCC-BAA-1794, read-out: MIC. In kind it is cell-based. Summed up:
as §3

Molecules are shown by their SMILES. Values after ≈ are worked out from the molar mass of the structure shown.

In test [1], `C[C@H]1[C@H](NC(=O)/C(=N\OC(C)(C)C(=O)O)c2csc(N)n2)C(=O)N1S(=O)(=O)O` [Aztreonam, reference compound] registered an LOG10-of bacterial load of 6.91 ± 1.63. Also, the MIC in test [2] is 0.25 µg/mL (≈ 0.574 µM); in test [3] it was 8 µg/mL (≈ 18.4 µM); in [4], 0.25 µg/mL (≈ 0.574 µM); in test [5], 16 µg/mL (≈ 36.7 µM); in test [6] it was not above 0.125 µg/mL; in test [7] it was 64 µg/mL (≈ 147 µM). For the same compound, the MIC in [8] stood at 32 µg/mL (≈ 73.5 µM); in test [9] it was 32 µg/mL (≈ 73.5 µM); in [10], 32 µg/mL (≈ 73.5 µM); in test [11], 32 µg/mL (≈ 73.5 µM); in test [12], 32 µg/mL (≈ 73.5 µM); in [13] it was 2 µg/mL (≈ 4.59 µM). Further, the MIC was found to be 32 µg/mL (≈ 73.5 µM) in test [14]; 64 µg/mL (≈ 147 µM) in test [15]; 16 µg/mL (≈ 36.7 µM) in [16]; 64 µg/mL (≈ 147 µM) in test [17]; 32 µg/mL (≈ 73.5 µM) in test [18]; 32 µg/mL (≈ 73.5 µM) in test [19]. Further, the MIC amounted to 32 µg/mL (≈ 73.5 µM) in [20], 128 µg/mL (≈ 294 µM) in test [21] and 32 µg/mL (≈ 73.5 µM) in [22].

Source of the values: patent publication US11459323B2, “Monocyclic β-lactam compound for treating bacterial infection” (MEDSHINE DISCOVERY INC., priority 2018, dated 2022).
